Results from patent US8491897B2, “Treatment of neuropathic pain using anti-thrombospondin antibodies” (The Board of Trustees of the Leland Stanford Junior …, priority 2007, dated 2013).
“Also recorded” adds a separate entry of the source.

Experiments:
RGCs [1] = test system: RGCs
barrel cortex = test: Lesion-induced barrel cortex plasticity assay in neonatal mice; type: in vivo
Description: Understanding how the brain remodels its neuronal networks has been a major goal of neurobiology, as these processes underlie learning, memory and recovery from injury. Is astrocyte-induced synapse formation involved in remodeling neural circuits during development? To explore this question a well-established developmental plasticity paradigm, ‘the barrel cortex plasticity’ assay, was used. The nerves that innervate the major whiskers on the snout of the mouse project to the brain as a topographically ordered “somatotopic” map where afferent axons and target cells form ordered modules that recapitulate the structural organization seen on the whisker pad (Erzurumlu et al., The Anatomical Record 288:121-134, 2006). First, neurons of the trigeminal nerve innervate the mystacial vibrissae (whiskers) and send projections […]. These projections then form synapses at the brainstem (barrelettes) and their afferents then project and synapse at the thalamus (barreloids). […]
Two groups of neonatal mice were injected either with GBP or an equal volume of saline daily starting at P0 until P7. […] The mice were then sacrificed at P7 and their barrel structure corresponding to both the unlesioned “control” hemisphere and the lesioned hemisphere were analyzed. […]

RGCs [2] = settings: culture media containing GBP

**Q.** For `NCC1(CC(=O)O)CCCCC1` [Gabapentin, 1-(aminomethyl)cyclohexaneacetic acid], which “toxicity to the RGCs” value (RGCs [1]) is on record?
**A.** The value was “not toxic”.

**Q.** And the “barrel formation on unlesioned control side” value (barrel cortex; daily injection P0 to P7, listed as GBP)?
**A.** Its value is “typical barrels formed on the control side; also recorded: did not affect the barrel cortex formation”.

**Q.** What about the “proportion of injected mice with atypical/aberrant barrel cortex plasticity response” value (barrel cortex; lesioned side, daily injection P0 to P7, C-row whisker lesion at P1) of the same molecule?
**A.** The value was 50%.

**Q.** What about the RGC survival (RGCs [2]) of the same molecule?
**A.** The RGC survival was 66.5±4.1%.
